Test results from patent US20180303940A1, “LIPOSOME PRODUCTION USING ISOPROPANOL” (GLAXOSMITHKLINE BIOLOGICALS, S.A., priority 2011, published 2018).

Test: Cholesterol solubility in solvents at saturation (dry residue weighed)
Format: physicochemical
Details: 50° C.
Protocol: 3 solvent compared: Ethanol , Isopropanol, Heptane
Cholesterol was progressively added to each solvent at 50° C. up to saturation of the solution
Once saturation is achieved, a sample of the solution is taken and the solvent is evaporated with a rotary evaporator and/or in an oven. Dry residue of cholesterol is weighed to determine the solubility value

CC(C)CCC[C@@H](C)[C@H]1CC[C@H]2[C@@H]3CC=C4C[C@@H](O)CC[C@]4(C)[C@H]3CC[C@]12C [cholesterol, (3β)-cholest-5-en-3-ol]
cholesterol solubility in ethanol (ethanol): 6.7%
cholesterol solubility in heptane (heptane): 4.3%
cholesterol solubility in isopropanol (isopropanol): 12.1%
